Here are results for 6 compounds from PMC6721227, “Insight into the PTP1B Inhibitory Activity of Arylbenzofurans: An In Vitro and In Silico Study” (Molecules, 2019).

Each structure is given as a SMILES string. “Also recorded” adds a separate entry of the source.

One assay relates to PTP1B. Set-up: method as in PMID 15258570. The conditions noted are these: allosteric inhibitor of PTP1B; cited from earlier work.
For assay [1], the target named is T1, Protein tyrosine phosphatase 1B (PTP1B, human recombinant) (Homo sapiens, UniProt P18031).
T1 construct: purchased Biomol International LP (Plymouth Meeting, PA, USA)
T1 sequence (P18031 1-435): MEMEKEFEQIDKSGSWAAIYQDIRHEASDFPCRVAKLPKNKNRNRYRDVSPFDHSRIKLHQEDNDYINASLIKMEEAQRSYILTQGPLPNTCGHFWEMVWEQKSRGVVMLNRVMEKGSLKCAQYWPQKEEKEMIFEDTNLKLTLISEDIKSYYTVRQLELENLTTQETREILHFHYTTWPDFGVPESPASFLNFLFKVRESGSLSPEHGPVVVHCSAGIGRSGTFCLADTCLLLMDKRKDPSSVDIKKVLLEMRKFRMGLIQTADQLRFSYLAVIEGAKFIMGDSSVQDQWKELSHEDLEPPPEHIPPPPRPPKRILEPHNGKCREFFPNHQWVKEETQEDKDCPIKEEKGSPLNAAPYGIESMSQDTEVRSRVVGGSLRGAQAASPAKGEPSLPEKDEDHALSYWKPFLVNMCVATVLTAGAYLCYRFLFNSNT
The assay is described as follows: Enzyme kinetic analysis (Lineweaver-Burk and Dixon plots). Format: biochemical. The note with it: for Ki: determined by Dixon plot; for Inhibition Type: determined by Lineweaver-Burk plot. An excerpt: Here, we employed Lineweaver-Burk and Dixon plots to determine the inhibition type and inhibition constant (Ki value) for each compound (Figure 2, Table 1).
(§1) Ethylenediaminetetraacetic acid, p-nitrophenyl phosphate (pNPP), and dimethylsulfoxide were purchased from Sigma-Aldrich Co. (St. Louis, MO, USA). Protein tyrosine phosphatase 1B (PTP1B, human recombinant) and dithiothreitol (DTT) were purchased from Biomol® International LP (Plymouth Meeting, PA, USA) and Bio-Rad Laboratories (Hercules, CA, USA), respectively. All chemicals and solvents used in the isolation and enzyme assays were of reagent grade and were purchased from commercial sources. TLC were performed on a precoated Merck Kiesel gel 60 F254 plates (20 × 20 cm, 0.25 mm) and RP-18 F254S plates (5 × 10 cm) (Merck, Darmstadt, Germany).
The kinetic parameters were determined using Lineweaver-Burk double-reciprocal plots and the Dixon plot method at increasing substrate and compound concentrations. All measurements were measured in triplicate, and Sigma Plot 12.0 (SPCC Inc., Chicago, IL, USA) was used to calculate the experimental parameters.

Assay [2] has as its target T1, Protein tyrosine phosphatase 1B (PTP1B, human recombinant). In words: PTP1B inhibitory assay (inhibition of pNPP hydrolysis catalyzed by PTP1B). Format: biochemical.
Description: as §1
Inhibition of pNPP hydrolysis catalyzed by PTP1B was carried out by the method as described but with slight modification.

The term IC50 denotes the concentration that inhibits the measured activity by half. For the compound `CCc1oc2cc(S(=O)(=O)Nc3ccc(S(N)(=O)=O)cc3)ccc2c1C(=O)c1cc(Br)c(O)c(Br)c1` [Compound A, 3-(3,5-dibromo-4-hydroxy-benzoyl)-2-ethyl-benzofuran-6-sulfonic acid (4-sulfamoyl-phenyl)-amide], the IC50 with PTP1B is […].
A word on the Ki: it is the dissociation constant of the complex between target and ligand, obtained from inhibition or displacement. With `CC(C)=CCC/C(C)=C/CC/C(C)=C\Cc1c(O)cc(O)c(CC=C(C)C)c1-c1cc2ccc(O)cc2o1` [MB, morusalfuran B], in assay [1], the Ki came out at 2.84 µM and the “Inhibition Type” value was “mixed-type inhibition; also recorded: mixed type inhibitor”. Further, in assay [2], the IC50 turned out to be 12 ± 0.75 µM.
For the compound `CC(C)=CCCC1(C)C=Cc2c(ccc3cc(-c4cc(O)cc(O)c4CC=C(C)C)oc23)O1` (centres unmarked) [MD2, mulberrofuran D2], in assay [1], the Ki is 2.63 µM and the “Inhibition Type” value is recorded as “non-competitive inhibition; also recorded: non-competitive inhibitor; also recorded: Noncompetitive”. The IC50 in assay [2] stood at 3.11 ± 0.1 µM. Besides, the “times more potent than compound A” value in assay [2] (MD2 vs compound A, PTP1B inhibition) was 7 times.
Consider `CC(C)=CCC/C(C)=C/Cc1c(O)ccc2cc(-c3cc(O)cc(O)c3CC=C(C)C)oc12` [MD, mulberrofuran D], for which, in assay [1], the inhibition constant Ki was determined as 4.79 µM and the “Inhibition Type” value is reported as “mixed-type inhibition; also recorded: mixed type inhibitor”. In assay [2], the IC50 was determined as 11.6 ± 0.19 µM.
For the compound `C[C@@]12C=C(c3c(O)cc(-c4cc5ccc(O)cc5o4)cc3O)C[C@@H](C1)c1ccc(O)cc1O2` [MH, mulberrofuran H], the IC50 in assay [2] stood at 53.5 ± 12.5 µM.
As for `COc1cc(O)cc(-c2cc3ccc(O)c(C/C=C(\C)CCC=C(C)C)c3o2)c1CC=C(C)C` [SA, sanggenofuran A], in assay [2], the IC50 is 31.9 ± 2.98 µM. The “reduction of activity (SA vs. MD)” value in assay [2] (replacement of C3′-OH with -OCH3, SA vs. MD) was > 3 times.
